Assay results published in patent publication US20210128492A1, “COMPOSITION FOR PREVENTING AND/OR IMPROVING BRAIN DYSFUNCTION COMPRISING A LUTEIN OR SALT THEREOF AND A PLANT PRODUCT OF THE GENUS TRAPA” (Santen Pharmaceutical Co., Ltd., priority 2017, published 2021).

Tests used:
[1] = system: Slc:ddY (SPF) mice injected with β-amyloid solution; assay: Y-maze test (spontaneous alternation test) in mice injected with β-amyloid solution; format: in vivo, mouse
Protocol: Slc:ddY (SPF:Specific-Pathogen-Free) mice (Supply Resource: Japan SLC, Inc.) received the administration a sample (Vehicle control, Trapa japonica extract, Lutein, or Trapa japonica extract+Lutein) and then the injection of β-amyloid solution. For the mice, Y-maze test was performed to evaluate the improvement effects of Trapa japonica extract, Lutein, and a combination thereof on learning disorder. The test was performed twice. The Y-maze test was performed according to Takayoshi MAMIYA et al., “Effects of Pre-Germinated Brown Rice on β-Amyloid Protein-Induced Learning and Memory Deficits in Mice”, Biol. Pharm. Bull., July 2004, 27(7), 1041-1045 to evaluate the effects.
Male, 5-week-old, Slc:ddY (SPF) mouse(Body weight: 23˜28 g: n=32)
According to the following procedure, model mice were made using the above mice: Each mouse was anesthetized with the intraperitoneal administration (dosing volume: 10 mL/kg) of pentobarbital sodium (TOKYO CHEMICAL INDUSTRY CO., LTD.) at 40 mg/kg. After anesthesia, levobupivacaine hydrochloride (POPSCAINE® 0.25% injection, Maruishi Pharmaceutical Co., Ltd.) (0.1 mL) was administered subcutaneously into the scalp of the mouse. The hair on the top of the mouse was trimmed, and the head part was fixed to a brain stereotactic device. The scalp of the mouse was sterilized with iodine tincture, and then the head part was incised to expose the skull and the connective tissue on the skull was removed with a cotton swab. The treated skull was dried with a blower to find the position of bregma more easily. A hole for inserting a stainless steel pipe was drilled in the skull at 1 mm to the right and 0.2 mm behind bregma with a dental drill. The stainless steel pipe connected to a silicon tube with an outside diameter of 0.5 mm and a micro syringe was perpendicularly inserted to a depth of 2.5 mm from the bone surface. 3 μL of a β-amyloid solution ([…]) was injected (in the sham operation group, 3 μL of water for injection was injected) into the cerebral ventricle with a microsyringe pump for 3 minutes. After the injection, the inserted stainless steel pipe was allowed to stand for 3 minutes, and then the pipe was slowly removed. After removing the stainless steel pipe, the cranial was closed with a non-absorbable myelostatic agent (NESTOP®, Alfresa Pharma Co., Ltd.) and the scalp was sutured. The mouse were removed from the brain stereotactic device and returned to the breeding cage.
The β-amyloid solution was prepared by dissolving β-amyloid (Amyloid-β Protein(25-35); Polypeptide Laboratories) to 2 mM with water for injection and incubating the solution in the constant temperature storage at 37° C. for 4 days. Water for injection was used as the vehicle for sham operation. […]

[2] = system: pyramidal cell layer of the hippocampus CA1 region; assay: Histopathological assessment of KB stained brain specimens from the mice of Test Example 1; format: in vivo, mouse
Protocol: The brain was isolated from the mice in each group of Test Example 1 to prepare histopathological specimens, and the histopathological assessment of the prepared histopathological specimens was performed. Such test was performed twice. Each mouse in each group of Test Example 1 was anesthetized with an isoflurane solution and the chest of the mouse was opened to expose the heart. The exposed heart was cut into the auricle thereof. A polypropylene disposable syringe with an injection needle was used, the injection needle thereof was inserted from left ventricle and about 30 mL of ice-cooled saline was injected into the heart, and then the heart was perfused with about 30 mL of 10 vol % formalin neutral buffer solution. […] The isolated brain was embedded in paraffin according to any conventional method, one histopathological section was discontinuously prepared at around bregma-1.70 mm and around bregma-2.80 mm, respectively, and then Klüver-Barrera stained (KB stained) tissue specimens were prepared from each section. The cut brain was stored in 10 vol % formalin neutral buffer solution. • 1) For each specimen, the images of pyramidal cell layers of the hippocampus CA1 region closest to bregma-1.70 mm and bregma-2.80 mm from the optical microscope image (George Paxinos and Keith B. J. Franklin. (2013). The Mouse Brain in stereotaxic coordinates.

[3] = 8 minutes, about 1 hour after administration on the 14th day, gavage once per day for 14 days (Trapa japonica extract 2 mg/kg, Lutein 0.4 mg/kg, combination 2 + 0.4 mg/kg), β-amyloid on day 8, average of n=10
[4] = β-amyloid model mice, 14 days gavage

## CC1=C[C@H](O)CC(C)(C)[C@H]1/C=C/C(C)=C/C=C/C(C)=C/C=C/C=C(C)/C=C/C=C(C)/C=C/C1=C(C)C[C@@H](O)CC1(C)C [Lutein, (3R,3′R,6′R)-β,ε-carotene-3,3′-diol]
[1]; [3]
  Spontaneous alternation rate: 59.3%
  The number of spontaneous alternation: 21.2 Count
  The total number of entries: 37.0 Count
[1]; [4]
  Spontaneous alternation rate as compared to the vehicle control group (in words): not improved
[2]; hippocampus CA1 region, KB stained specimens, mice of Test Example 1 (gavage 14 days; Trapa japonica extract 2 mg/kg, Lutein 0.4 mg/kg, combination 2 + 0.4 mg/kg), average of n=2
  Area of pyramidal cell layer: 224874 μm^2
[2]; [4]
  Area of pyramidal cell layer of the hippocampus CA1 region as compared to the vehicle control group (in words): increased
